Experiment: Spectrophotometric titration
Assay type: binding
From the text: Changes in the optical absorption characteristics of Nd^3+ were monitored using a Cary 6000i UV/Vis–NIR Spectrometer (Agilent) using 1 cm semimicro quartz cuvettes (Starna) in double-beam mode, where the ^4I9/2 → ^4G5/2, ^2G7/2 transitions[34] were monitored between 560 and 605 nm with a 0.075 nm interval and 1.0 nm spectral bandwidth. Changes in the optical absorption characteristics of ^243Am^3+ and ^248Cm^3+ were monitored using a Flame-S-VIS–NIR-ES spectrometer coupled to a DH-2000-BAL dual-mode light source (Ocean Optics) with a single 1 cm semimicro quartz cuvette (Starna). The light source and spectrometer were optically coupled to the CUV sample (Ocean Optics) holder using 2 m fiberoptics (200 μm) and the parameters for acquisition were 0.369 nm interval and 1000 scans averaged with an integration time/scan 1.08 ms (total acquisition time ~ 1 s). The complexation of Am^3+ with the ligands was monitored in the 495–525 nm spectral region, looking at the ^7F0′ → ^5L6′ transition[23],[35]. For Cm^3+, ligand complexation was monitored in the 365–410 nm spectral region, looking at the ^8S7/2 → ^2Ji (i = {15}, {13,9}, {11,17}) manifold transitions[24],[25],[36]. Changes in aqueous p[H^+] were monitored throughout each titration step using a Gran-calibrated Orion Ross Semi-micro glass electrode. Baseline correction was applied to all datasets and was typically a simple linear subtraction. However, in the case of the ^248Cm/H4pypa-peg spectra, the tail end of the ligand absorption overlapped the hypersensitive Cm peaks. In this case the background correction was applied using a 5th-order empirical polynomial. Finally, the spectroscopic data was analyzed using the HypSpec software package[33],[37]. Full details of the titrand and titrant solutions for each titration are included in the Supplemental Information.
The coordination of Nd^3+ by H4octapa and H4pypa-peg was also studied using spectroscopic methods. Figures 5A, B show the collected spectrophotometric signatures for H4octapa and H4pypa-peg, respectively.4 M^3++L^4-⇆ML^-β101=ML^-/[M^3+]L^4- 5 M^3++H^++L^4-⇆MHLaqβ111=MHLaq/[M^3+L^4-H^+]
Optical absorption features of ^4I9/2 → ^4G5/2, ^2G7/2 transitions for Nd^3+ are perturbed due to the introduction of increasing quantities of complexants, resulting in characteristic red-shifted changes. In Fig. 5A a broad absorption band with λmax = 577 nm is distinctly different to the optical absorption of free Nd^3+ metal in Fig. 5B. The differences can be attributed to the nitrate complexation of Nd^3+ as the spectrophotometric titration with H4octapa was performed in 2.0 M (Na^+/H^+)NO3. […] The HypSpec interpretation of the Nd/pypa-peg titration points to the presence of three absorbing species: Nd^3+, NdHL(aq), and NdL^−. The conditional stability constants obtained spectroscopically are listed in Table 3, showing good agreement with the stability constants determined using potentiometry. The complex stability constants for structurally similar APC ligands found in the literature are also presented (H4pypa[18] and H4py4pa[57]).
2. Spectrophotometric titration parameters
Nd3+: The titrand solution consisting of 1.980 mL of 7.57 mM Nd(ClO4)3 at p[H+] = 1.61 was blended with 1.965 mL of titrant solution containing 7.62 mM Nd3+, 18.57 mM H4octapa, […]
Am3+: The titrand solution consisting of 0.842 mL of 0.810 mM Am(ClO4)3 at p[H+] =1.66 was blended with 0.811 mL of titrant solution containing 0.815 mM Am3+, 8.95 mM H4octapa, at p[H+] ≈ 5.0 – 6.0.
Nd3+: The titrand solution consisting of 0.801 mL of 9.82 mM Nd(ClO4)3 at p[H+] = 1.61 was blended with 1.176 mL of titrant solution containing 9.91 mM Nd3+ and 24.58 mM H4pypa-peg in with p[H+] ≈ 3.0 – 4.0.
Am3+: The titrand solution consisting of 0.806 mL of 0.791 mM Am(ClO4)3 at p[H+] = 1.41 was blended with 0.787 mL of titrant solution containing 0.801 mM Am3+ and 15.09 mM H4pypa-peg at p[H+] ≈ 5 – 6.
Cm3+: The titrand solution consist ing of 0.809 mL of 1.00 mM Cm(ClO4)3 at p[H+] = 1.34 was […]

[1] = spectrophotometrically determined in 2.0 M (Na+/H+)ClO4, 20 °C

SMILES | logβ101 (ML), Nd [1] | logβ111 (MHL), Nd [1] | logK111, Nd (spectrophotometrically determined in 2.0 M (Na+/H+)ClO4) | logβ101 (ML), Nd (spectrophotometrically determined in 2.0 M (Na+/H+)NO3)
O=C(O)CN(CCN(CC(=O)O)CC(=O)O)CCN(CC(=O)O)CC(=O)O [H5dtpa, diethylenetriamine-N,N,N',N'',N''-pentaacetic acid] | 20.23(2) | 21.59(2) |  | 
O=C(O)CN(Cc1cc(-c2cn(CCOCCOCCO)nn2)cc(CN(CC(=O)O)Cc2cccc(C(=O)O)n2)n1)Cc1cccc(C(=O)O)n1 [H4pypa-peg, 6,6'-((((4-(1-(2-(2-(2-hydroxyethoxy)ethoxy)ethyl)-1H-1,2,3-triazol-4-yl)pyridine-2,6-diyl)bis–(methylene))bis–((carboxymethyl)azanediyl))bis–(methylene)) dipicolinic acid] | 18.15 (6) | 20.04 (4) | 1.89 (6) | 
O=C(O)CN(CCN(CC(=O)O)Cc1cccc(C(=O)O)n1)Cc1cccc(C(=O)O)n1 [H4octapa, 6,6′-((ethane-1,2-diylbis–((carboxymethyl)azanediyl))bis–(methylene))dipicolinic acid] |  |  |  | 18.15 (1)
O=C(O)CN(CCN(CCN(CC(=O)O)CC(=O)O)CC(=O)O)CCN(CC(=O)O)CC(=O)O [H6ttha, triethylenetetraamine-N,N,N',N'',N''',N'''-hexaacetic acid] | 21.90(7) | 25.56(7) |  | 

Source: article PMC10587169, “Tuning aminopolycarboxylate chelators for efficient complexation of trivalent actinides” (Scientific Reports, 2023)
